The values that follow come from PubChem BioAssay (NCI).

Test systems include A549 NSCLC; OVCAR-5 ovarian; MOLT-4 leukemia; CAKI-1 renal; HCT-116 colon; OVCAR-3 ovarian; ACHN renal; MALME-3M melanoma; SK-MEL-28 melanoma; SK-OV-3 ovarian.
Test in all cases: inhibition of tumour cell growth, NCI panel, 48 h

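Tested at 5 concentrations; 48 h exposure; 96-well plates; endpoints linearly interpolated, else capped at highest concentration. TGI denotes the concentration required for complete inhibition of growth.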

As to `CCOC(=O)c1c(NS(=O)(=O)c2ccccc2)sc2c1CCCC2`, the TGI in the test with A549 NSCLC was more than 100 µM; in the test with OVCAR-5 ovarian it was more than 100 µM; in the test on MOLT-4 leukemia, more than 100 µM; with CAKI-1 renal it was more than 100 µM; in the test on HCT-116 colon it was more than 100 µM; with OVCAR-3 ovarian it was 82.3 µM. Moreover, in the test on ACHN renal, the TGI is more than 100 µM.
For the molecule `CN1C/C(=C\c2ccccc2)C2=NN(C(N)=S)[C@H](c3ccccc3)[C@@H]2C1`, the TGI with MALME-3M melanoma, in the test on A549 NSCLC, with OVCAR-5 ovarian, in the test on MOLT-4 leukemia, in the test with HCT-116 colon and in the test with SK-MEL-28 melanoma was more than 100 µM each time. The TGI in the test on SK-OV-3 ovarian, with OVCAR-3 ovarian and with ACHN renal was more than 100 µM in each case.
For the molecule `CCN(CC)C(=O)Cc1[nH][nH]c(=O)c1C(=O)N(CC)CC`, the TGI in the test on MALME-3M melanoma, in the test on A549 NSCLC, in the test with MOLT-4 leukemia, in the test with HCT-116 colon, with SK-MEL-28 melanoma and in the test with SK-OV-3 ovarian was more than 100 µM throughout. In addition, the TGI in the test with OVCAR-3 ovarian and in the test with ACHN renal was more than 100 µM each time.
For `CC(C)C(Sc1nc(N)nc2nc[nH]c12)C(=O)O` (configuration not stated), the TGI with MALME-3M melanoma, in the test on A549 NSCLC, in the test on OVCAR-5 ovarian, with CAKI-1 renal, in the test on HCT-116 colon and in the test with SK-MEL-28 melanoma was more than 100 µM each time. Moreover, the TGI with SK-OV-3 ovarian, in the test with OVCAR-3 ovarian and in the test on ACHN renal was more than 100 µM in each case.
As to `CCCC(O)c1ccc2[nH]c3c(C)cc([N+](=O)[O-])c(C)c3c2c1` (configuration not stated), the TGI in the test with MALME-3M melanoma, with A549 NSCLC, in the test on OVCAR-5 ovarian, in the test with MOLT-4 leukemia, in the test on CAKI-1 renal and in the test on HCT-116 colon was more than 100 µM each time. Moreover, the TGI in the test with SK-MEL-28 melanoma, with OVCAR-3 ovarian and with ACHN renal was more than 100 µM each time.
With `CCCNC(=O)c1cc(OC)c(OC)cc1NC(=O)C12CC3CC(CC(C3)C1)C2`, the TGI was 32.9 µM in the test on MALME-3M melanoma; 35.3 µM in the test with A549 NSCLC; 36.6 µM with OVCAR-5 ovarian; more than 100 µM in the test with MOLT-4 leukemia; 41.3 µM in the test on CAKI-1 renal; 30.4 µM with HCT-116 colon. For the same molecule, the TGI was 32.6 µM in the test on SK-MEL-28 melanoma, 35.4 µM in the test on OVCAR-3 ovarian and 30.9 µM in the test on ACHN renal.
For `CCOC(=O)c1c(N2CCN(C)CC2)[nH]c(=O)c(C(c2c(Cl)cccc2Cl)c2c(O)c(C(=O)OCC)c(N3CCN(C)CC3)[nH]c2=O)c1O`, the TGI was 41.5 µM with MALME-3M melanoma; 71.4 µM in the test on A549 NSCLC; more than 100 µM in the test with OVCAR-5 ovarian; 62.2 µM with MOLT-4 leukemia; 52.7 µM in the test on CAKI-1 renal; more than 100 µM in the test on HCT-116 colon. Besides, the TGI with SK-MEL-28 melanoma turned out to be 34.1 µM; with OVCAR-3 ovarian, 87.1 µM; in the test with ACHN renal it was 42.8 µM.
As to `CC[C@@]1(O)C(=O)OCc2c1cc1n(c2=O)Cc2c-1nc1ccc(N)cc1c2CC[Si](C)(C)C`, the TGI was 0.31 µM with MALME-3M melanoma; 0.177 µM in the test on A549 NSCLC; 1 µM in the test with OVCAR-5 ovarian; less than 0.01 µM with MOLT-4 leukemia; 2.01 µM with HCT-116 colon; 13.8 µM in the test with SK-MEL-28 melanoma. The TGI with SK-OV-3 ovarian is 1.63 µM; with OVCAR-3 ovarian, 0.797 µM.
`CN(C)CCCn1c(-c2ccc(Br)cc2)csc1=Nc1ccccc1`: the TGI in the test on A549 NSCLC was determined as 48.9 µM; with OVCAR-5 ovarian, 36.3 µM; with MOLT-4 leukemia, 59.2 µM; in the test on CAKI-1 renal it was 41 µM; in the test with SK-MEL-28 melanoma it was 53.3 µM; with SK-OV-3 ovarian it was 40.4 µM. For the same molecule, the results for the TGI in the test on OVCAR-3 ovarian and in the test with ACHN renal were 23.3 µM and 37.7 µM, respectively.
As for `CCc1nnc2sc(-c3ccc(-c4ccccc4[N+](=O)[O-])o3)nn12`, the TGI in the test with MALME-3M melanoma is more than 100 µM; in the test on A549 NSCLC, more than 100 µM; in the test on OVCAR-5 ovarian it was more than 100 µM; in the test on MOLT-4 leukemia, 62.8 µM; in the test with CAKI-1 renal, more than 100 µM; in the test with HCT-116 colon, more than 100 µM. Moreover, the TGI in the test on SK-OV-3 ovarian, with OVCAR-3 ovarian and in the test on ACHN renal was more than 100 µM each time.
`O=C(O)c1ccccc1Sc1ccc(C=C2NC(=S)N(c3ccccc3)C2=O)s1`: the TGI in the test with MALME-3M melanoma, in the test with OVCAR-5 ovarian, with MOLT-4 leukemia, in the test with CAKI-1 renal, in the test on HCT-116 colon and in the test on SK-MEL-28 melanoma was more than 100 µM in each case. In addition, the TGI with OVCAR-3 ovarian and with ACHN renal was more than 100 µM in each case.
For `c1cc(CSP234N5CCN2CCN3CCN4CC5)cc(CSP234N5CCN2CCN3CCN4CC5)c1`, the TGI in the test on A549 NSCLC was more than 100 µM; in the test with OVCAR-5 ovarian, more than 100 µM; in the test with MOLT-4 leukemia it was 49.5 µM; with CAKI-1 renal, more than 100 µM; in the test on HCT-116 colon it was more than 100 µM; with SK-MEL-28 melanoma, 44.6 µM. For the same molecule, the TGI with OVCAR-3 ovarian and with ACHN renal was more than 100 µM in each case.
In the case of `O=C1c2ccccc2CC12Cc1ccc3c(c1C2=O)CCCC3` (configuration not stated), the TGI in the test with MALME-3M melanoma is more than 100 µM; in the test with A549 NSCLC, more than 100 µM; in the test on OVCAR-5 ovarian it was more than 100 µM; with MOLT-4 leukemia, 12.5 µM; with HCT-116 colon, more than 100 µM; in the test on SK-MEL-28 melanoma it was more than 100 µM. Further, the TGI with SK-OV-3 ovarian, in the test with OVCAR-3 ovarian and in the test on ACHN renal was more than 100 µM in each case.
As for `O=c1[nH]nc(-c2cccc([N+](=O)[O-])c2)[nH]1`, the TGI in the test on MALME-3M melanoma, in the test on A549 NSCLC, in the test with OVCAR-5 ovarian, in the test on MOLT-4 leukemia, with CAKI-1 renal and in the test with HCT-116 colon was more than 100 µM each time. For the same molecule, the TGI in the test on SK-MEL-28 melanoma, in the test on OVCAR-3 ovarian and in the test on ACHN renal was more than 100 µM throughout.
For `C=CCSC1=N/C(=C\c2ccc(C)cc2)C(=O)N1CC=C`, the TGI with A549 NSCLC is 65.4 µM; in the test with OVCAR-5 ovarian, more than 100 µM; in the test with CAKI-1 renal it was more than 100 µM; in the test with HCT-116 colon, 67.4 µM; in the test on SK-MEL-28 melanoma it was more than 100 µM; with SK-OV-3 ovarian it was more than 100 µM. Besides, the TGI in the test on OVCAR-3 ovarian and with ACHN renal was more than 100 µM throughout.
